Data reported in article PMC7023430, “4-Aminobenzoic Acid Derivatives: Converting Folate Precursor to Antimicrobial and Cytotoxic Agents” (Biomolecules, 2019).
In brackets after ≈: the same amount, converted by molar mass. Read-outs that look alike come from different tables or passages of the source.

Tests used:
[1] = tested on: Trichophyton interdigitale 445; test: Antifungal microdilution broth method, T. interdigitale; format: cell-based
Summary of the method: (§1)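 Panel covers five yeasts and three filamentous fungi tested by a slightly modified EUCAST microdilution protocol. Growth medium is glucose-supplemented (2%) RPMI-1640 with L-glutamine at pH 7.0 (MOPS). Endpoints are judged visually from duplicate runs.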

[2] = tested on: Lichtheimia corymbifera 272; test: Antifungal microdilution broth method, L. corymbifera; format: cell-based
Summary of the method: as §1

Trichosporon asahii 1188 = test: Antifungal microdilution broth method, T. asahii; format: cell-based
Summary of the method: as §1

[3] = tested on: Pseudomonas aeruginosa ATCC 27853, CCM 3955; test: Antibacterial microdilution broth method, P. aeruginosa; format: cell-based; conditions: Pseudomonas aeruginosa
Candida glabrata 20/I = test: Antifungal microdilution broth method, C. glabrata; format: cell-based; conditions: Nakaseomyces glabratus
Summary of the method: as §1

[4] = tested on: methicillin-resistant Staphylococcus aureus ATCC 43300, CCM 4750 (MRSA); test: Antibacterial microdilution broth method, MRSA; format: cell-based; conditions: Staphylococcus aureus
[5] = tested on: Enterococcus faecalis ATCC 29212, CCM 4224; test: Antibacterial microdilution broth method, E. faecalis; format: cell-based; conditions: Enterococcus faecalis
Candida tropicalis 156 = test: Antifungal microdilution broth method, C. tropicalis; format: cell-based
Summary of the method: as §1

[6] = tested on: ESBL-positive Klebsiella pneumoniae J 14368/08
[7] = tested on: M. kansasii 6509/96 (clinical isolate); test: Antimycobacterial micromethod in Šula's medium, M. kansasii 6509/96; format: cell-based; conditions: Mycobacterium kansasii
[8] = tested on: Mycobacterium kansasii 235/80; test: Antimycobacterial micromethod in Šula's medium, M. kansasii 235/80; format: cell-based
Candida krusei E28 = test: Antifungal microdilution broth method, C. krusei; format: cell-based; conditions: Pichia kudriavzevii
Summary of the method: as §1

[9] = tested on: Mycobacterium avium 330/88; test: Antimycobacterial micromethod in Šula's medium, M. avium; format: cell-based
[10] = tested on: Klebsiella pneumoniae D 11750/08; test: Antibacterial microdilution broth method, K. pneumoniae; conditions: K. pneumoniae D 11750/08; for MIC KP 24 h: 24 h incubation; for MIC KP 48 h: 48 h incubation
[11] = tested on: Escherichia coli ATCC 25922, CCM 3954; test: Antibacterial microdilution broth method, E. coli; format: cell-based; conditions: Escherichia coli
[12] = tested on: Staphylococcus epidermidis H 6966/08; test: Antibacterial microdilution broth method, S. epidermidis; format: cell-based; conditions: Staphylococcus epidermidis, H6966/08
[13] = P. aeruginosa, 24 h incubation, read-out: MIC PA 24 h
[14] = P. aeruginosa, 48 h incubation, read-out: MIC PA 48 h
[15] = 24 h incubation, read-out: MIC MRSA 24 h
[16] = 48 h incubation, read-out: MIC MRSA 48 h
[17] = 24 h incubation, read-out: MIC EF 24 h
[18] = 48 h incubation, read-out: MIC EF 48 h
[19] = 168 h, 7 days incubation at 37 °C, read-out: MIC M. kansasii 6509/96 7 d
[20] = 336 h, 14 days incubation at 37 °C, read-out: MIC M. kansasii 6509/96 14 d
[21] = 504 h, 21 days incubation at 37 °C, read-out: MIC M. kansasii 6509/96 21 d
[22] = 235/80, 168 h, 7 days incubation at 37 °C, read-out: MIC M. kansasii 235/80 7 d
[23] = 235/80, 336 h, 14 days incubation at 37 °C, read-out: MIC M. kansasii 235/80 14 d
[24] = 235/80, 504 h, 21 days incubation at 37 °C, read-out: MIC M. kansasii 235/80 21 d
[25] = 330/88, 336 h, 14 days incubation at 37 °C, read-out: MIC M. avium 330/88 14 d
[26] = 330/88, 504 h, 21 days incubation at 37 °C, read-out: MIC M. avium 330/88 21 d
[27] = 24 h incubation, read-out: MIC EC 24 h
[28] = 48 h incubation, read-out: MIC EC 48 h
[29] = S. epidermidis, 24 h incubation, read-out: MIC SE 24 h
[30] = S. epidermidis, 48 h incubation, read-out: MIC SE 48 h

Compound | MIC ([1]; 72 h, read-out: MIC TI 72 h) [µM] | MIC ([1]; 120 h, read-out: MIC TI 120 h) [µM] | MIC ([2]; 24 h, read-out: MIC LC 24 h) [µM] | MIC ([2]; 48 h, read-out: MIC LC 48 h) [µM] | MIC (Trichosporon asahii 1188; 24 h, read-out: MIC TA 24 h) [µM] | MIC (Trichosporon asahii 1188; 48 h, read-out: MIC TA 48 h) [µM] | MIC [3, 13] [µM] | MIC [3, 14] [µM] | MIC (Candida glabrata 20/I; 24 h, read-out: MIC CG 24 h) [µM] | MIC (Candida glabrata 20/I; 48 h, read-out: MIC CG 48 h) [µM] | MIC [4, 15] [µM] | MIC [4, 16] [µM] | MIC [5, 17] [µM] | MIC [5, 18] [µM] | MIC (Candida tropicalis 156; 24 h, read-out: MIC CT 24 h) [µM] | MIC (Candida tropicalis 156; 48 h, read-out: MIC CT 48 h) [µM] | MIC KP-E 24 h [6] [µM] | MIC KP-E 48 h [6] [µM] | MIC [7, 19] [µM] | MIC [7, 20] [µM] | other results
O=C(O)c1ccc(N=Cc2ccc([N+](=O)[O-])o2)cc1 [1r, 4-{[(5-Nitrofuran-2-yl)methylene]amino}benzoic acid] | 250 (≈ 65.1 µg/mL) | 250 (≈ 65.1 µg/mL) | > 500 | > 500 | 500 (≈ 130 µg/mL) | 500 (≈ 130 µg/mL) | 500 (≈ 130 µg/mL) | 500 (≈ 130 µg/mL) | 250 (≈ 65.1 µg/mL) | 250 (≈ 65.1 µg/mL) | 62.5 (≈ 16.3 µg/mL) | 62.5 (≈ 16.3 µg/mL) | > 500 | > 500 | 250 (≈ 65.1 µg/mL) | 250 (≈ 65.1 µg/mL) | 500 (≈ 130 µg/mL) | 500 (≈ 130 µg/mL) | 125 (≈ 32.5 µg/mL) | 125 (≈ 32.5 µg/mL) | MIC ([3]; time not stated, read-out: MIC, P. aeruginosa): 500 µM (≈ 130 µg/mL); MIC [7, 21]: 250 µM (≈ 65.1 µg/mL); MIC [8, 22]: 62.5 µM (≈ 16.3 µg/mL); MIC [8, 23]: 125 µM (≈ 32.5 µg/mL); MIC [8, 24]: 250 µM (≈ 65.1 µg/mL); MIC (Candida krusei E28; 24 h, read-out: MIC CK 24 h): 62.5 µM (≈ 16.3 µg/mL); MIC (Candida krusei E28; 48 h, read-out: MIC CK 48 h): 62.5 µM (≈ 16.3 µg/mL); MIC [9, 25]: 250 µM (≈ 65.1 µg/mL); MIC [9, 26]: 500 µM (≈ 130 µg/mL); MIC KP 24 h [10]: 500 µM (≈ 130 µg/mL); MIC KP 48 h [10]: 500 µM (≈ 130 µg/mL); MIC [11, 27]: > 500 µM; MIC [11, 28]: > 500 µM; MIC [12, 29]: 125 µM (≈ 32.5 µg/mL); MIC [12, 30]: 125 µM (≈ 32.5 µg/mL)
O=C(O)c1ccc(N=Cc2ccc(Cl)cc2O)cc1 [1l, 4-[(4-Chloro-2-hydroxybenzylidene)amino]benzoic acid] | 500 (≈ 138 µg/mL) | > 500 | > 500 | > 500 | 500 (≈ 138 µg/mL) | > 500 | > 500 | > 500 | 500 (≈ 138 µg/mL) | > 500 | > 500 | > 500 | > 500 | > 500 | 500 (≈ 138 µg/mL) | > 500 | >500 | >500 | 250 (≈ 68.9 µg/mL) | 250 (≈ 68.9 µg/mL) | MIC [7, 21]: 500 µM (≈ 138 µg/mL); MIC [8, 22]: 250 µM (≈ 68.9 µg/mL); MIC [8, 23]: 500 µM (≈ 138 µg/mL); MIC [8, 24]: 500 µM (≈ 138 µg/mL); MIC (Candida krusei E28; 24 h, read-out: MIC CK 24 h): 500 µM (≈ 138 µg/mL); MIC (Candida krusei E28; 48 h, read-out: MIC CK 48 h): > 500 µM; MIC [9, 25]: 1000 µM (≈ 276 µg/mL); MIC [9, 26]: 1000 µM (≈ 276 µg/mL); MIC KP 24 h [10]: >500 µM; MIC KP 48 h [10]: >500 µM; MIC [11, 27]: > 500 µM; MIC [11, 28]: > 500 µM; MIC [12, 29]: > 500 µM; MIC [12, 30]: > 500 µM
Cc1ccc(O)c(C=Nc2ccc(C(=O)O)cc2)c1 [1g, 4-[(2-Hydroxy-5-methylbenzylidene)amino]benzoic acid] | > 125 | > 125 | > 125 | > 125 | > 125 | > 125 | > 500 | > 500 | > 125 | > 125 | > 500 | > 500 | > 500 | > 500 | > 125 | > 125 | >500 | >500 | 500 (≈ 128 µg/mL) | 500 (≈ 128 µg/mL) | MIC [7, 21]: 1000 µM (≈ 255 µg/mL); MIC [8, 22]: 500 µM (≈ 128 µg/mL); MIC [8, 23]: 500 µM (≈ 128 µg/mL); MIC [8, 24]: 500 µM (≈ 128 µg/mL); MIC (Candida krusei E28; 24 h, read-out: MIC CK 24 h): > 125 µM; MIC (Candida krusei E28; 48 h, read-out: MIC CK 48 h): > 125 µM; MIC [9, 25]: > 1000 µM; MIC [9, 26]: > 1000 µM; MIC KP 24 h [10]: >500 µM; MIC KP 48 h [10]: >500 µM; MIC [11, 27]: > 500 µM; MIC [11, 28]: > 500 µM; MIC [12, 29]: 250 µM (≈ 63.8 µg/mL); MIC [12, 30]: 250 µM (≈ 63.8 µg/mL); MIC ([12]; time not stated, read-out: MIC, S. epidermidis): ≥ 250 µM
